From patent US8481592B2, “Uses of sesquiterpene derivatives” (Kwang Dong Pharm Co., Ltd., priority 2008, dated 2013) come the findings set out here.

In data set [1] the test system is C. elegans. The data set can be described thus: Anti-obesity effect (fat content by Nile red staining) in C. elegans. The class given is in vivo, Caenorhabditis elegans. Set-up: key to Fat content: A low fat content was indicated by +1; a high fat content was assigned with +4. Particulars: for inhibitory effect on adipogenesis: low concentration of 1 μg/ml; for Fat content: Nile red staining. Here is the method: Using a dissecting microscope (×50 magnification), C. elegans at the 4th stage (L4, the imaginal stage) was transferred to 3 ml of a cholesterol-supplemented S-medium (containing NaCl, K2HPO4, KH2PO4, cholesterol, citrate, trace metals, CaCl2 and MgSO4), and 100 μl of E. coli OP50 (OD600=0.2) liquid-cultured overnight before 1 day of experiment was added thereto. The Pterocarpus indicus fraction sample was added to the liquid media containing C. elegans, followed by rotary culture in a dark room at 16° C. and 100 rpm. The water-insoluble sample was dissolved in DMSO and added to the culture media. The final concentration of DMSO was adjusted below 1%. […] 24 hours after the sample was added to C. elegans, 30 μl of a Nile red dye at a concentration of 10 μg/ml was added (final concentration of Nile red was adjusted to 100 ng/ml) to the media, followed by continuous rotary culture for 2 days.
In order to arrest the locomotory movement of C. elegan, 20 μl of 0.3% NaN3 was dropped on a slide glass to which 100 μl of C. elegans cultured in the presence of Nile red for 2 days was added. Under a fluorescence microscope, adipocytes of C. elegans emitting red fluorescence in a dark room were micrographed and compared with the control group to thereby determine the amount of fat. A low fat content was indicated by +1, whereas a high fat content was assigned with +4. Adult (L4 stage) C. elegans immediately prior to egg-laying were used in this Example. Therefore, the eggs were hatched after sample treatment and most of adult C. elegans were killed at 3 day post-treatment. A fat content was examined in C. elegans which had newly hatched and grown.

Data set [2] can be described thus: Physical characteristics of the compounds (solubility, stability). Particulars: easily dissolved in organic solvent having lower polarity than ethanol, but not water.
Data set [3] can be described thus: Body weight gain and total visceral fat weight in mice fed high fat diet containing sesquiterpene compound. It counts as in vivo, mouse. Particulars: for Body weight gain / total visceral fat weight: HFD with 0.2% compound in diet, C57BL mice, 8 weeks; for total visceral fat weight: epididymal, perirenal, mesenteric and abdominal fat. An excerpt: Obesity-inducible diet used in the present experiment was high fat diet (HFD: 40% fat calorie, 17 g Lard+3% maize oil/100 g diet) developed by the present inventors and the composition of diet containing sesquiterpene compounds was equal to that of HFD but each 8 sesquiterpene compounds with a concentration of 0.2% was included in diet [cedryl acetate-containing diet, (−)-α-cedrene-containing diet, (+)-β-cedrene-containing diet, cedrene epoxide-containing diet, methyl cedryl ether-containing diet, methyl cedryl ketone-containing diet, cedrenol-containing diet and (+)-cedrol-containing diet]. The composition of diet is described in the following Table 5.
6-old-week C57BL/63 male mice were adapted to laboratory environment during one week and divided into HFD control and 8 test groups according to randommized block design. […] Diet was supplied with water at 10-11 o'clock every morning, and intake amount of diet and body weight was measured every day and once of three days, respectively. The body weight was measure at 2 hrs after removing feed bin to block sudden change of body weight according to feed intake, and feed efficiency was calculated by dividing body weight gain by amount of total intake amount of diet during total experimental period which is from initial day supplying experimental diet to sacrificed day. After experimental animals were fasted for above 12 hrs, they were anesthetized with diethylether, and their blood, liver and visceral fat tissues (epididymal fat, perirenal fat, mesenteric fat and abdominal fat) were collected. And then, they were washed with 0.1 M phosphate-buffered saline (pH 7.4), and their weights were measured. Blood taken from abdominal aorta was centrifuged at 1,000×g for 15 min to separate plasma.

Data set [4] can be described thus: Biochemical index of blood and liver tissue in mice fed high fat diet containing sesquiterpene compound. The class given is in vivo, mouse. Particulars: for Liver Triglyceride / IRI (insulin resistance index) / Plasma Glucose / Plasma Insulin / Plasma Total cholesterol / Plasma Triglyceride: HFD with compound in diet, 8 weeks; for IRI (insulin resistance index) / Plasma Glucose / Plasma Insulin / Plasma Total cholesterol / Plasma Triglyceride: fasted. Here is the method:
The composition of diet is described in the following Table 5. […] After experimental animals were fasted for above 12 hrs, they were anesthetized with diethylether, and their blood, liver and visceral fat tissues (epididymal fat, perirenal fat, mesenteric fat and abdominal fat) were collected. And then, they were washed with 0.1 M phosphate-buffered saline (pH 7.4), and their weights were measured. […] Concentration of total Plasma cholesterol, triglyceride and glucose was measured twice according to commercially available measurement kit (Bio Clinical system), respectively. Insulin concentration was measured by ELISA using mouse insulin kit (Shibayaki, Japan). […] The homogenate was mixed with 5 ml of chloroform:methanol solution (2:1, v/v), and centrifuged at 1,000×g for 10 min to separate lower phase. […] Three ml of chloroform:methanol:0.05% CaCl2 solution (3:48:47, v/v/v) were added to the resulting lower phase, and thoroughly mixed for 1 min. The mixture was centrifuged at 1,000×g for 10 min. The final lower phase was completely dried on nitrogen gas, and the dried lipid was dissolved in 1 ml of methanol to use analysis of lipid component. Triglyceride concentration in lipid extracts from liver tissues was measured according to commercially available measurement kit (Bio Clinical system) equal to that used in analysis of plasma.

Where a name gives a salt, the structure may show the parent alone. Marks after values point to notes of the source that are not given here.

In the case of `CC1=CC[C@]23C[C@H]1C(C)(C)C2CC[C@H]3C` (stereo partly drawn) [(+)-α-funebrene], in data set [1], the “inhibitory effect on adipogenesis” value is listed as “notably inhibitory effect on adipogenesis”. Besides, the Fat content result in data set [1] (sample concentration 1 μg/ml) is listed as “+3”; in data set [1] (sample concentration 10 μg/ml), “+2”; in data set [1] (sample concentration 100 μg/ml) it was “+2”. The Solubility result in data set [2] is listed as “Fat soluble”.
For `C=C1CC[C@@]23C[C@@H]1C(C)(C)C2CC[C@H]3C` (stereo partly drawn) [(+)-β-cedrene], the “inhibitory effect on adipogenesis” value in data set [1] is “notably inhibitory effect on adipogenesis”. Also, in data set [1] (sample concentration 1 μg/ml), the Fat content entry was “+2”. Moreover, the Fat content entry in data set [1] (sample concentration 10 μg/ml) is recorded as “+3”. In addition, in data set [1] (sample concentration 100 μg/ml), the Fat content entry is listed as “+2”. For the same compound, in data set [3], the Body weight gain is on record as 7.13 ± 0.89 g/8 weeks and the “total visceral fat weight” value is listed as 48.0 ± 8.27 mg/g body weight. Besides, in data set [4], the “Liver Triglyceride” value is 16.6 ± 1.28 µmol/g, the “IRI (insulin resistance index)” value is recorded as 0.78 ± 0.11* 10^−3 pmol insulin × mmol glucose × L^−2, the “Plasma Glucose” value came out at 6.80 ± 0.41 mmol/L and the “Plasma Insulin” value came out at 0.70 ± 0.08 ng/mL. Also, in data set [4], the “Plasma Total cholesterol” value is given as 2.57 ± 0.19 mmol/L and the “Plasma Triglyceride” value amounted to 1.32 ± 0.11 mmol/L. The “triglyceride concentration of liver tissue reduced compared to HFD” value in data set [4] (liver tissue, 8-week) was 63%. Further, the Solubility result in data set [2] is given as “Fat soluble”.
In the case of `C[C@@H]1CC[C@H]2C(C)(C)[C@H]3C[C@@]12CC1OC13C` (some centres unmarked) [cedrene epoxide, Cedrene epoxide], the Fat content result in data set [1] (sample concentration 1 μg/ml) is “+4”. Also, the Fat content entry in data set [1] (sample concentration 10 μg/ml) is “+3”. Besides, the Fat content entry in data set [1] (sample concentration 100 μg/ml) is given as “+2”. In data set [3], the Body weight gain came out at 12.4 ± 1.36 g/8 weeks and the “total visceral fat weight” value was determined as 65.6 ± 4.43 mg/g body weight. In data set [4], the “Liver Triglyceride” value is 27.8 ± 2.41 µmol/g, the “IRI (insulin resistance index)” value was 0.94 ± 0.14* 10^−3 pmol insulin × mmol glucose × L^−2, the “Plasma Glucose” value is on record as 7.34 ± 0.68 mmol/L and the “Plasma Insulin” value is 0.71 ± 0.04 ng/mL. For the same compound, in data set [4], the “Plasma Total cholesterol” value is 2.81 ± 0.18 mmol/L and the “Plasma Triglyceride” value amounted to 1.32 ± 0.08 mmol/L. In data set [2], the Solubility entry is “Fat soluble”.
For `CC1=CCC23CC1C(C)(CO)C2CCC3C` (centres unmarked) [cedrenol, Cedrenol], the “inhibitory effect on adipogenesis” value in data set [1] is listed as “notably inhibitory effect on adipogenesis”. Also, the Fat content result in data set [1] (sample concentration 1 μg/ml) was “+2”. The Fat content entry in data set [1] (sample concentration 10 μg/ml) was “+1”. For the same compound, in data set [1] (sample concentration 100 μg/ml), the Fat content result is “+1”. Moreover, in data set [3], the Body weight gain was 9.51 ± 1.47 g/8 weeks and the “total visceral fat weight” value is given as 57.8 ± 4.02 mg/g body weight. In addition, in data set [4], the “Liver Triglyceride” value came out at 25.0 ± 1.81 µmol/g, the “IRI (insulin resistance index)” value is given as 0.71 ± 0.09* 10^−3 pmol insulin × mmol glucose × L^−2, the “Plasma Glucose” value was found to be 7.24 ± 0.56 mmol/L and the “Plasma Insulin” value is recorded as 0.58 ± 0.07 ng/mL. In data set [4], the “Plasma Total cholesterol” value turned out to be 2.42 ± 0.22 mmol/L and the “Plasma Triglyceride” value is on record as 1.20 ± 0.10 mmol/L. Moreover, the Solubility entry in data set [2] was “Fat soluble”.
On to `C=C1CC[C@]23C[C@H]1C(C)(C)C2CC[C@H]3C` (stereo partly drawn) [(+)-β-funebrene], for which the “inhibitory effect on adipogenesis” value in data set [1] is reported as “notably inhibitory effect on adipogenesis”. The Fat content entry is “+1” in data set [1] (sample concentration 1 μg/ml), “+1” in data set [1] (sample concentration 10 μg/ml) and “+2” in data set [1] (sample concentration 100 μg/ml). Further, the Solubility result in data set [2] is given as “Fat soluble”.
Regarding `C=C1[C@@H](O)C[C@@]23C[C@@H]1C(C)(C)C2CC[C@H]3C` (single isomer, unassigned; (+)) [(+)-8(15)-cedrene-9-ol, (+)-8(15)-Cedren-9-ol], the “inhibitory effect on adipogenesis” value in data set [1] is reported as “notably inhibitory effect on adipogenesis”. In addition, the Fat content result is given as “+2” in data set [1] (sample concentration 1 μg/ml), “+1” in data set [1] (sample concentration 10 μg/ml) and “+2” in data set [1] (sample concentration 100 μg/ml). In addition, in data set [2], the Solubility result is on record as “Fat soluble”.
`C=C1C2CCC3C2[C@@H](C(C)C)CC[C@@]13C` (single isomer, unassigned; (+)) [(+)-sativene]: in data set [1], the “inhibitory effect on adipogenesis” value was “notably inhibitory effect on adipogenesis”. The Fat content result is recorded as “+2” in data set [1] (sample concentration 1 μg/ml), “+2” in data set [1] (sample concentration 10 μg/ml) and “+1” in data set [1] (sample concentration 100 μg/ml). Besides, the Solubility entry in data set [2] is listed as “Fat soluble”.
Regarding `CC1(C)C=C[C@]23CCC[C@](C)(CCC12)C3` (single isomer, unassigned; (-)) [(−)-clovene, (−)-Clovene], the “inhibitory effect on adipogenesis” value in data set [1] is reported as “notably inhibitory effect on adipogenesis”. The Fat content result in data set [1] (sample concentration 1 μg/ml), in data set [1] (sample concentration 10 μg/ml) and in data set [1] (sample concentration 100 μg/ml) was “+2” each time. In addition, the Solubility result in data set [2] is recorded as “Fat soluble”.
In the case of `C[C@@H]1CC[C@H]2C(C)(C)[C@H]3C[C@@]12CC[C@@]3(C)OC=O` [cedryl formate, Cedryl formate], the “inhibitory effect on adipogenesis” value in data set [1] is listed as “notably inhibitory effect on adipogenesis”. In addition, the Fat content result in data set [1] (sample concentration 1 μg/ml) was “+3”; in data set [1] (sample concentration 10 μg/ml), “+1”; in data set [1] (sample concentration 100 μg/ml) it was “+1”. Moreover, in data set [2], the Solubility result is on record as “Fat soluble”.
`C[C@@H]1CC[C@H]2C(C)(C)[C@H]3C[C@@]12CC[C@@]3(C)O` [(+)-cedrol]: the Fat content entry in data set [1] (sample concentration 1 μg/ml) is on record as “+4”. The Fat content entry in data set [1] (sample concentration 10 μg/ml) is “+4”. Further, the Fat content result in data set [1] (sample concentration 100 μg/ml) was “+3”. In data set [3], the Body weight gain is 10.9 ± 0.85 g/8 weeks and the “total visceral fat weight” value stood at 92.4 ± 5.31 mg/g body weight. Further, the “Visceral fat weight compared to control” value in data set [3] (diet fed during 8-week) is given as “higher than that in control”. Also, the “all fasting glucose, blood insulin concentration and insulin resistance index in comparison with control” value in data set [4] (8-week) was “prone to be decreased in comparison with control, but statistical significance was not shown”. Also, in data set [4], the “Liver Triglyceride” value was found to be 49.1 ± 4.10 µmol/g, the “IRI (insulin resistance index)” value was 1.45 ± 0.22 10^−3 pmol insulin × mmol glucose × L^−2, the “Plasma Glucose” value was determined as 9.8 ± 0.99 mmol/L and the “Plasma Insulin” value is on record as 0.86 ± 0.07 ng/mL. Moreover, in data set [4], the “Plasma Total cholesterol” value amounted to 2.98 ± 0.20 mmol/L and the “Plasma Triglyceride” value was found to be 1.31 ± 0.10 mmol/L.
Turning to `C[C@@H]1CC[C@H]2C(C)(C)[C@H]3C[C@@]12CC[C@]3(C)O` [(−)-epicedrol, (−)—epicedrol], the “inhibitory effect on adipogenesis” value in data set [1] is “notably inhibitory effect on adipogenesis”. In addition, the figures for the Fat content entry in data set [1] (sample concentration 1 μg/ml), in data set [1] (sample concentration 10 μg/ml) and in data set [1] (sample concentration 100 μg/ml) were “+1”, “+1” and “+3”, respectively.
